Measured values: patent US11060092B2, “Inhibitors of cytoplasmic histone deacetylase 4 complex for treating or preventing vascular or valve calcification” (TECHNION RESEARCH AND DEVELOPMENT FOUNDATION LTD., priority 2016, dated 2021)

Columns and labels:
GFP-HDAC4 in VSMCs = test: GFP-HDAC4 cytoplasmic/nuclear localization in transfected VSMCs (CellProfiler scoring); type: cell-based, mouse; conditions: for cytoplasmic localization of HDAC4: VSMCs transfected with wild type GFP-HDAC4, vehicle 96.8%; for effect on HDAC4 location (nuclear accumulation / shuttling): VSMCs transfected with GFP-HDAC4
Protocol: (§1) Mouse aortic smooth muscle cells were purchased from ATCC (CRL-2797) and grown in DMEM supplemented with 10% FBS. 10 mmol/L beta-glycerophosphate (Sigma-Aldrich) and 0.2 mmol/L 2-Phospho-L-ascorbic acid (Sigma-Aldrich) were added to the growth media for 3-14 days to induce calcification (HPM). All cultured cells were maintained at 37° C. with 5% CO2.
Cell were transfected with pEGFP-HDAC4, pEGFP-HDAC4 3SA, pcDNA HDAC4-flag that were a gift from Tso-Pang Yao (Addgene plasmid #45636, #45637, #30485) [Cohen T. J. et al., The histone deacetylase HDAC4 connects neural activity to muscle transcriptional reprogramming. J Biol Chem 2007, 282, 33752-33759] or pEGFP-HDAC4 3-625 plasmid. Mouse ENIGMA (Pdlim7) or truncation mutants were cloned to pcDNA-3HA backbone plasmid. Transfections were performed using polyjet reagent (signaGen) according to manufacturer's instructions. Hdac4 siRNA (IDT), ENIGMA siRNA (GE Healthcare Life Sciences Dharmacon) LKB1 siRNA (IDT) and Sun2 siRNA (IDT) were transfected to the cells using Stemfect RNA Transfection Kit (Stemgent Inc.) according to manufacturer's instructions.
The pan-SIK, inhibitors: HG-9-91-01 (ApexBio #B1052), WH-4-023 (Sigma-Aldrich), MRT67307 (Sigma-Aldrich) and the pan-PKD and CamK inhibitors: CID-2011756 (Cayman #15317), KN-93 (Sigma-Aldrich K1285), were added to the HPM at final concentrations of 0.5, 1, 2, 5 and 10 μmol/L.
For localization and co-localization assays cell were transfected with pEGFP-HDAC4 plasmids, fixed with 4% formaldehyde in PBS, and blocked in 5% FBS in PBS. Staining for ENIGMA was done with overnight incubation of an antibody recognizing Pdlim7 (ProteinTech #10221-1-AP) in 2% FBS. Cy3-conjugated AffiniPure Donkey Anti-Rabbit IgG secondary antibody (Jackson ImmunoResearch) was used for detection. Nuclei were counterstained with DAPI 1 μg/ml. Cells were imaged using Zeiss Axio observer fluorescent microscope. Cytoplasmic and nuclear localization analysis was performed automatically on acquired images using CellProfiler cell image and analysis software [Carpenter A. E. et al., CellProfiler: image analysis software for identifying and quantifying cell phenotypes. Genome Biol 2006, 7, R100].

VSMCs [1] = test: qRT-PCR of osteochondrogenic markers in VSMCs; type: cell-based, mouse; conditions: VSMCs grown 7 days in HPM, 1 μM vs DMSO
Protocol: as §1
RNA was extracted from cultured cell using the NucleoSpin RNA kit (MACH EREY-NAGEL). The RNeasy Fibrous Tissue mini and midi kits (Qiagen) were used to extract RNA from aortic rings and human tissue (respectively). All kits were used in accordance with manufacturer protocol. Reverse transcription was done using iScript reagent (Bio-Rad). Quantitative real-time PCR was performed with iTaq universal SYBR green supermix (Bio-Rad) using Bio-Rad CFX96 real time system. Previous study has shown that Actb was among the most stably expressed genes in differentiating osteoblasts [Stephens A. S, et al., Internal control genes for quantitative RT-PCR expression analysis in mouse osteoblasts, osteoclasts and macrophages. BMC Res Notes 2011, 4, 410], and therefore expression data were normalized to the expression of Actb. For each expression analysis we used at least two different experiments, at least four biological replicates, and two technical replicates for each biological replicates for each gene. We performed a standard curve for each primer pair. […]

VSMCs [2] = test: O-cresolphthalein calcium colorimetric assay of VSMCs (matrix calcification); type: cell-based, mouse; conditions: VSMCs in HPM, 14 days, normalized to protein concentration
Protocol: as §1
After 14 days of growth cells were washed in PBS and incubated overnight in 0.6N HCl. HCl was collected and calcium content was measured using o-cresolphthalein Calcium colorimetric assay kit (Sigma-Aldrich) according to manufacture instructions. Calcium concentration was then normalized to cells protein concentration.

aortic rings = test: Aortic rings assay in HPM (qRT-PCR of osteochondrogenic markers, Von Kossa stain); type: cell-based, mouse; conditions: aortic rings 14 days in HPM
Protocol: Aortas were either fresh frozen in OCT sliced into section with a cryostat or fixed in 4% formaldehyde, embedded in paraffin and cut into thin sections. Slides were stained to detect calcium depositions with Alizarin red or Von Kossa stains. Alizarin red: slides were incubated in 2% alizarin red (Sigma-Aldrich) for 5 minutes at room temperature, excess stain was washed in DDW. Von Kossa: slides were incubated for 20 minutes in 5% silver nitrate (Sigma-Aldrich), washed twice in DDW, immersed in 0.5% hydroquinone (Sigma-Aldrich) for 2 minutes followed by 2 minutes of 5% sodium thiosulfate (Alfa Aesar).
Aortic rings were prepared as described [Nature protocols, Use of the mouse aortic ring assay to study angiogenesis.—PubMed—NCBI, Last updated January 2012, Accessed on January 2012]. In brief, adult C57BL/6 mice were euthanized with isoflurane; thoracic aorta was dissected, cleaned under a microscope and cut into rings. […]
RNA was extracted from cultured cell using the NucleoSpin RNA kit (MACH EREY-NAGEL). […] Quantitative real-time PCR was performed with iTaq universal SYBR green supermix (Bio-Rad) using Bio-Rad CFX96 real time system. Previous study has shown that Actb was among the most stably expressed genes in differentiating osteoblasts [Stephens A. S, et al., Internal control genes for quantitative RT-PCR expression analysis in mouse osteoblasts, osteoclasts and macrophages. […]

aortic calcification = test: Vitamin D3 induced aortic calcification in ApoE-/- mice (Von Kossa, Alizarin red); type: in vivo, mouse; conditions: vitamin D3 overload, 5 mg/Kg/day IP then osmotic pump
Protocol: ApoE^−/− mice were purchased from The Jackson Laboratory. All animals were housed in a temperature-controlled environment with 12 hours light/dark cycles with food and water available ad libitum. Mice were aged 8 weeks when entering the study. Aortic calcification was induced via vitamin D3 overload as previously described [Idelevich A, Rais Y, Monsonego-Ornan E (2011) Bone Gla Protein Increases HIF-1-Dependent Glucose Metabolism and Induces Cartilage and Vascular Calcification. Arterioscler Thromb Vasc Biol 31: e55-e71]. 1α,25-Dihydroxyvitamin D3 (Sigma-Aldrich) was dissolved in 100% ethanol and diluted freshly. Mice received IP injections of 1α,25-Dihydroxyvitamin D3 for six consecutive days at a final concentration of 5 μg/Kg in 5% ethanol. SIK inhibition was achieved by daily administration of HG-9-91-01 (ApexBio #B1052) in DMSO at a final concentration of 5 mg/Kg/day. Littermate ApoE−/− mice were arbitrarily divided to receive treatment or control. In the first 4 days HG-9-91-01 was injected IP and on day 5 osmotic pumps (Alzet model 1002) were implanted. Animals were monitored daily and terminated for study at day 18. Specifically, mice were sacrificed in isoflurane and aortas were collected for histology. All mice procedures were performed in accordance with institutional guidelines. […]

hepatocytes = conditions: cited from earlier work
bone mass = conditions: once daily treatment; cited from earlier work

Row | Compound | cytoplasmic localization of HDAC4 (GFP-HDAC4 in VSMCs; 10 μmol/L) | effect on HDAC4 location (nuclear accumulation / shuttling) (GFP-HDAC4 in VSMCs) | further results
1 | O=C(Nc1ccc(CN2CCOCC2)cc1)c1ccc(-c2cccc(Cl)c2)o1 [CID 2011756] | 99.6% | did not significantly affect the location of HDAC4 | 
2 | COc1ccc(N(C(=O)Oc2c(C)cccc2C)c2ccnc(Nc3ccc(N4CCN(C)CC4)cc3)n2)c(OC)c1 [WH-4-023] |  | induced the shuttling of HDAC4 to the nucleus | 
3 | COc1ccc(S(=O)(=O)N(CCO)c2ccccc2CN(C)C/C=C/c2ccc(Cl)cc2)cc1 [KN-93] | 91.6% | did not significantly affect the location of HDAC4 | 
4 | COc1ccc(N(C(=O)Nc2c(C)cccc2C)c2cc(Nc3ccc(N4CCN(C)CC4)cc3)ncn2)c(OC)c1 [HG-9-91-01] | 14.4% | induced nuclear import of HDAC4 in a dose dependent manner | cytoplasmic localization of HDAC4 (GFP-HDAC4 in VSMCs; 0.5 μmol/L): 97.4%; cytoplasmic localization of HDAC4 (GFP-HDAC4 in VSMCs; 2 μmol/L): 75.7%; upregulation of the osteochondrogenic genes (VSMCs [1]): blunted the upregulation of the osteochondrogenic genes; matrix calcification (matrix calcium) (VSMCs [2]): blunted; matrix calcification (Von Kossa stain) (aortic rings): blunted; upregulation of the osteochondrogenic genes (aortic rings; 1 μM vs DMSO): blunted; development of aortic medial calcifications (aortic calcification): markedly blunted the development of these calcifications; gluconeogenic gene expression and glucose production (hepatocytes): enhanced gluconeogenic gene expression and glucose production in hepatocytes
5 | COc1ccc(N2C(=O)N(c3c(C)cccc3Cl)Cc3cnc(Nc4ccc(C5CCN(C)CC5)cc4OC)nc32)nc1 [YKL-05-099] |  |  | skeletal effects / bone mass (bone mass): mimic skeletal effects of PTH and increase bone mass
6 | O=C(NCCCNc1nc(Nc2cccc(CN3CCOCC3)c2)ncc1C1CC1)C1CCC1 [MRT67307] |  | induced the shuttling of HDAC4 to the nucleus | 
7 | CCC(=C/[C@H](C)C/C=C/C(C)=C/[C@@H](C)C(=O)[C@@H](C)[C@H](O)[C@@H](C)C/C(C)=C/C(=O)O)/C=C/[C@@H]1OC(=O)C=C[C@@H]1C [Leptomycin B, leptomycin B] |  | induced nuclear accumulation of GFP-HDAC4 | 
